The values that follow come from patent publication US10662221B2, “Cystargolide compounds and uses thereof” (UNIVERSITY OF PRINCE EDWARD ISLAND, priority 2015, dated 2020).

Several values for one entry are separate records, joined by “and”; a condition that tells them apart may be missing. Equal entries are not always repeated.

A short description of data set [1]: Stability in mild acidic conditions. In kind it is physicochemical. Conditions: resulting in polymerization. From the text: The fifth degree of unsaturation was attributed to cyclization. Two options were therefore available; a macrolactone cyclization between C-1 and the C-2″ hydroxyl, or a β-lactone between C-4″ and the C-2″ hydroxyl. The presence of IR absorption at 1835 cm^−1 was characteristic of a β-lactone carbonyl stretching band and therefore strongly supports cyclization between C-4″ and the hydroxyl at C-2″. The lack of HMBC correlation between H-2″ and C-1 also supported a β-lactone cyclization. The presence of the β-lactone was further confirmed by the instability of 1 in mild acidic conditions resulting in polymerization. The relative configuration at the C-2″ and C-3″ positions on the β-lactone moiety was determined from an analysis of the ^3JHH values.

Data set [2] has as its target T1, human 20S proteasome (Homo sapiens, UniProt P28074).
T1 construct: purified human erythrocyte 20S proteasome; purchased Enzo Life Sciences BML-PW8720-0020; host or cells: purified from human erythrocytes (native tissue material)
The data set is described as follows: 20S proteasome inhibition assay (chymotrypsin-like activity, Suc-LLVY-AMC cleavage). It counts as biochemical. The note with it: purified human erythrocyte 20S proteasome 3 μg/mL, Suc-LLVY-AMC 75 μM, 30° C., 10 min preincubation, triplicate ± SD.
Protocol: Varying concentrations of 1 and 2 were incubated with purified human 20S proteasome. To determine the chymotrypsin-like activity, the fluorogenic substrate Suc-LLVY-AMC was added and fluorescence was recorded to measure the rate of enzyme activity.
1 and 2 were tested for proteasome inhibition using purified human erythrocyte 20S proteasome (Enzo Life Sciences: BML-PW8720-0020). 20S proteasome was diluted to a final concentration of 3 μg/mL in assay buffer (50 mM Tris/HCl, pH 7.5, 25 mM KCl, 10 mM NaCl, 1 mM MgCl2, and 0.03% SDS), and incubated with inhibitors at varying concentrations at 30° C. for 10 minutes. To determine the chymotrypsin-like activity, the reaction was initiated by the addition of the fluorogenic substrate Suc-LLVY-AMC (Enzo Life Sciences, BML-9802-9090) at a final concentration of 75 μM. The rate of cleavage of the substrate was determined by measuring fluorescence using a Spectra Max M2 (Molecular Devices) plate reader at an excitation wavelength of 360 nm and emission of 460 nm. The fluorescence was recorded every 15 seconds for 30 minutes, and the linear regression between 15 and 30 minutes were used to calculate the rate of substrate cleavage (AFU/s). Control wells were included that contained no inhibitor to show the maximum substrate cleavage rate, epoxomicin (0.5 μM) and no enzyme (Blank) to show the minimum response. The IC50 values, the concentration required to reduce the enzyme response by 50 percent, were calculated by Prism 6.0 (GraphPad Software) using a nonlinear regression dose-response, variable slope model based on triplicate measurements±standard deviation.

The subject of data set [3] is rabbit 20S proteasome. The note with it: read-out: IC50, inhibition of chymotrypsin-like activity of the rabbit 20S proteasome; cited from earlier work.

Regarding `CCC(C)[C@H](NC(=O)[C@@H](NC(=O)C1OC(=O)C1C(C)C)C(C)C)C(=O)O` (some centres unmarked) [Compound 1, Cystargolide A], in data set [1], the “stability in mild acidic conditions” value was “instability”. Also, in data set [2], the IC50 is 360 nM and 350 nM. Regarding `CC(C)C1C(=O)OC1C(=O)N[C@H](C(=O)N[C@H](C(=O)O)C(C)C)C(C)C` (some centres unmarked) [Compound 2, Cystargolide B], half-maximal inhibition in data set [2] (IC50) required 930 nM. In the case of belactosin A, the IC50 in data set [3] is 210 nM. For belactosin C, in data set [3], the IC50 is 210 nM.
